Results published in patent publication US4575550A, “Platinum complexes” (Shionogi & Co., Ltd., priority 1981, dated 1986).

How the values were obtained:
Sarcoma 180 tumor cells [1] = experiment: Antitumor activity against Sarcoma-180 (Experiment 4, intravenous for 5 days); assay type: in vivo, DS mice; conditions: i.v., 5% glucose solution; for ED50: 14400 min
Procedure: (§1) Sarcoma 180 tumor cells (5×10^6 cells) are inoculated to DS mice (6 to 8 mice are employed in each test group) subcutaneously, and a predetermined amount of the test compounds is administered intraperitoneally for 5 days continuously from the next day of the inoculation.
The test was carried out in the same manner as in Experiment 1, wherein the test compounds were administered intravenously for 5 days.
The evaluation was made in the same manner as in Experiment 1.

[2] = test system: Leukemia L1210 ascites cells; experiment: Antitumor activity against L1210 (Experiment 2, intraperitoneal); assay type: in vivo, BDF1 mice; conditions: i.p.
Procedure: Leukemia L1210 ascites cells (10^5 cells) in mice are intraperitoneally inoculated to BDF1 mice (4 to 10 mice are employed in each test group), and on the next day a predetermined amount of the test compounds is administered intraperitoneally. The solvent for injection consists of 0.9% NaCl, 0.4% Polysorbate 80, 0.5% CMC, and 0.5% benzyl alcohol suspension.
From the average survival days (a) in the test group and those (b) of the untreated control group, the increase of lifespan (ILS) is calculated according to the following expression. [formula]

Sarcoma 180 tumor cells [3] = experiment: Antitumor activity against Sarcoma-180 (Experiment 1, intraperitoneal for 5 days); assay type: in vivo, DS mice; conditions: i.p.; for ED50 (effective dose which inhibits the growth of tumors by 50%): 14400 min
Procedure: as §1

kidney = experiment: Nephro-toxicity (Experiment 3, once intraperitoneally); assay type: in vivo, male Sprague Dawley rats; set-up: key: .uparw.: increase; slight increase; .dwnarw.: decrease; ±: no change; conditions: once i.p., (A) 10 mg/kg, (B) 5 mg/kg, solvent 1: 5% glucose
Excerpt: Seven weeks-old male Sprague Dawley rats are separately accommodated in metabolic cages of stainless steel, and solid feed (Clea Japan, INC., CA-1 for breeding) and water are given so that they can take them freely. They are adapted for 3 days and then the test compounds are once administered to rats intraperitoneally at 10:00 a.m. […] The urine excreted during a period of 10 a.m. on the day of administration to 10 a.m. on the next day is defined as urine of the first day; on the urine of the 0-4th days the volume of urine excreted, creatinine, osmotic pressure, urinary enzyme N-acetyl-β-D-glucosaminidase (NAG), and lysozyme (LEZ) are measured, and further urinary protein and urinary sugar are examined with Labstix®. In the morning on the 5th day the rats are anatomized under anesthesia with Ouropan-Soda®(Shionogi & Co., Ltd.; Hexobarbital sodium), and the blood and pathologic specimens of the kidney and the liver are collected in order to determine the level of plasma urea nitrogen and creatinine, and osmotic pressure.

[4] = dose 2 × 1 (dose unit not given)
[5] = dose 5 × 1 (dose unit not given)
[6] = dose 10 × 1 (dose unit not given)
[7] = dose 20 × 1 (dose unit not given)
[8] = 0.9% NaCl, 0.4% Polysorbate 80, 0.5% CMC, 0.5% benzyl alcohol suspension

N.N.O=C1COCC(=O)[O][Pt][O]1 [D, Diglycolato-cis-diammineplatinum(II)]
CI (curative index) (Sarcoma 180 tumor cells [1]): 3.3
LD50 (Sarcoma 180 tumor cells [1]): 80.0 mg/kg
ED50 (Sarcoma 180 tumor cells [1]): 24.1 mg/kg

N.N.O=C1C[O][Pt][O]1 [C, Glycolato-cis-diammineplatinum(II)]
ED50 (Sarcoma 180 tumor cells [1]): 18.7 mg/kg

Glycerato-cis-diammineplatinum(II)
CI (curative index) (Sarcoma 180 tumor cells [1]): 4.2
LD50 (Sarcoma 180 tumor cells [1]): 186.6 mg/kg
ED50 (Sarcoma 180 tumor cells [1]): 44 mg/kg

N.N.[Cl][Pt][Cl] [(B), Cisplatin, reference compound]
increase of lifespan (ILS) [2, 4]: 11%
increase of lifespan (ILS) [2, 5]: 29%
increase of lifespan (ILS) [2, 6]: > 84%
increase of lifespan (ILS) [2, 7]: -26%
ED50 (Sarcoma 180 tumor cells [1]): 4.5 mg/kg
ED50 (effective dose which inhibits the growth of tumors by 50%) (Sarcoma 180 tumor cells [3]; [8]): 7.3 mg/kg
ED50 (effective dose which inhibits the growth of tumors by 50%) (Sarcoma 180 tumor cells [3]; solvent 5% glucose solution): 5.8 mg/kg

Glucuronato-cis-diammineplatinum(II) [(A)]
increase of lifespan (ILS) [2, 4]: 4%
increase of lifespan (ILS) [2, 5]: 12%
increase of lifespan (ILS) [2, 6]: 14%
increase of lifespan (ILS) [2, 7]: > 55%
CI (curative index) (Sarcoma 180 tumor cells [1]): 2.9
LD50 (Sarcoma 180 tumor cells [1]): 186 mg/kg
ED50 (Sarcoma 180 tumor cells [1]): 63.4 mg/kg
CI (curative index) (Sarcoma 180 tumor cells [3]; [8]): 3.3
LD50 (50% lethal dose) (Sarcoma 180 tumor cells [3]; [8]): 113.5 mg/kg
ED50 (effective dose which inhibits the growth of tumors by 50%) (Sarcoma 180 tumor cells [3]; [8]): 34 mg/kg
CI (curative index) (Sarcoma 180 tumor cells [3]; solvent 5% glucose solution): 2.8
LD50 (50% lethal dose) (Sarcoma 180 tumor cells [3]; solvent 5% glucose solution): 93.4 mg/kg
ED50 (effective dose which inhibits the growth of tumors by 50%) (Sarcoma 180 tumor cells [3]; solvent 5% glucose solution): 33.4 mg/kg
Body Weight (g) (kidney): ±
Creatinine Clearance (kidney): ±
Excrement of Creatinine (mg/24 hrs./100 g BW) (kidney): ±
Excrement of Solute (mOsm/24 hrs./100 g BW) (kidney): ±
Kidney Weight (kidney): ±
LEZ (urinary lysozyme) (kidney): ±
Liver Weight (kidney): ±
Osmotic Pressure of Urine (mOsm/kg) (kidney): ±
Urinary Glucose (kidney): ±
Urinary Protein (kidney): ±
Volume of Urine (ml/24 hrs.) (kidney): ±
Plasma Creatinine (kidney; 5th day): ±
Plasma Osmotic Pressure (kidney; 5th day): ±
Plasma Urea Nitrogen (kidney; 5th day): ±
